Assay results taken from patent US20110195910A1, “USE OF TOCOTRIENOL COMPOSITION FOR THE PREVENTION OF CANCER” (DAVOS LIFE SCIENCE PTE. LTD., priority 2008, published 2011).

How the values were obtained:
[1] = tested on: G361 cells; assay: Western blotting of epithelial/mesenchymal markers, G361 cells; assay type: cell-based; conditions: G361, 24 hrs
Protocol: 1.1.5 Western blotting—Detailed protocols have been described previously and are known in the art. Briefly, cell lysates were prepared by suspending cell pellets in lysis buffer [50 mmol/l Tris-HCl (pH 8.0), 150 mmol/l NaCl, 1% NP40, 0.5% deoxycholate, 0.1% SDS, 1 mg/ml aprotinin, 1 μg/ml leupeptin and 1 mmol/l phenylmethylsulfonyl fluoride]. For nuclear protein extraction, NucBuster™ protein extraction kit was used. Protein concentration was measured using the DC Protein Assay kit (Bio-Rad, Hercules, Calif.). Equal amount of protein (30 μg) was loaded onto a 10% SDS polyacrylamide gel for electrophoresis and then transferred onto a polyvinylidene difluoride membrane (Amersham, Piscataway, N.J.). The membrane was then incubated with primary antibodies for 1 hr at room temperature against E-cadherin (BD Biosciences, Bedford, Mass.), α-catenin, β-catenin, γ-catenin, Id-1, Id-3, EGFR, phosphor-c-jun, phosphor-ATF2, cleaved PARP, vimentin, α-smooth muscle actin, twist (Santa Cruz Biotechnology, Calif.), phosphor-IkB-alpha (Ser32/36), phosphor-IKK alpha (Seri 80)/IKK beta (Ser181), phosphor-SAPK/JNK (Thr183/Tyr185) G9, SAPK/JNK, NF-kB p65 (5A5) (Cell Signaling Technology Inc, Beverly, Mass.), Snail (Abcam). […] Expression of β-actin and histone H1 were assessed as an internal loading control for total cell lysate and nuclear protein lysate respectively.

[2] = tested on: prostate intraepithelial neoplasia (PIN); assay: Prevention of prostate intraepithelial neoplasia (PIN) in prostate cancer mouse models; assay type: in vivo; conditions: fed mice, FIG. 8
Protocol: For experiments, 5-week old prostate cancer mouse models previously published (Gabril, M. Y., Duan, W., et al., Molecular Therapy (2005), vol. 11, no. 3, p. 348; Greenberg et al., Proc Natl Acad Sci USA (1995), vol. 92, pp. 3439-3443; Duan, W., Gabril, M. Y., et al., Oncogene (2005) 24, 1510-1524; Wang S, Gao J, et al., Cancer Cell., 2003, vol. 4, no. 3, pp. 209-21; Gabril, M. Y., Onita, T., et al., Gene Ther., 2002, vol. 9, no. 23, pp. 1589-99) are used. All animal experiments were conducted according to standard protocols approved by Animal Care Committee. Genotyping was performed in PSP-TGMAP, and KIMAP mice were identified by a quick PCR genotyping protocol as previously reported (see above references referred to under item 6).
In one exemplary experiment, the animals are given 1 mg of gamma tocotrienol per day for 30 weeks via oral gavage. At the end of 10, 20 and 30 weeks, animals are sacrificed. The prostate along with the male accessory glands, i.e., the ventral and dorsolateral prostate lobes, seminal vesicles, and coagulation gland, were dissected out separately for histopathological characterization of prostate tumor development, prostate intraepithelial neoplasia (PIN) development and microinvasion. […]

[3] = tested on: PC-3 cells; assay: Low-dose viability (MTT) and apoptotic markers, PC-3 cells; assay type: cell-based; conditions: 2.5 and 5 μg/ml
Protocol: 5.1.4 Cell viability assay—Cell viability upon γ-T3 treatment was measured by 3-(4,5-Dimethyl thiazol-2-yl)-2,5-diphenyl tetrazolium bromide (MTT) assay. Briefly, cells were seeded on 96 well-plates and treated with different concentrations of γ-T3 for the indicated time point. At the end of the treatment, MTT (Sigma, St. Louis, Mo.) was added into each well and incubated for 4 hrs at RT. DMSO was then added into each well to dissolve the formazan crystals. The plate was allowed to incubate for a further 5 min at RT and the optical density (OD) was measured at a wavelength of 570 nm on a Labsystem multiskan microplate reader (Merck Eurolab, Dietikon, Schweiz). All individual wells were set in triplicates. The percentage of cell viability was presented as OD ratio between the treated and untreated cells at indicated concentrations.
5.1.5 Western blotting was carried out as described above under 1.1.5. The membrane was incubated with primary antibodies directed against CD133 (Miltenyi Biotec, Auburn, Calif.), Bcl-2, PARP, cleaved caspase 3, 7, 9 (Cell Signaling, Technology Inc, Beverly, Mass.), CD44 and β-actin (Santa Cruz Biotechnology, Santa Cruz, Calif.). After washing with TBS-T, the membrane was incubated with secondary antibody against either mouse or rabbit IgG and the signals were visualized using ECL plus western blotting system (Amersham, Piscataway, N.J.).

CC(C)=CCC/C(C)=C/CC/C(C)=C/CCC1(C)CCc2cc(O)c(C)c(C)c2O1 (stereo not shown) [γ-T3, 7,8-dimethyltocotrienol]
E-cadherin and γ-catenin protein expression [1]: up-regulated
Snail and mesenchymal markers (vimentin, α-SMA and twist) expression [1]: down-regulated
development of prostate intraepithelial neoplasia (PIN) [2]: prevent the formation of prostate intraepithelial neoplasia (PIN)
induction of apoptosis (viability assay and apoptotic markers) [3]: failed to detect a drastic induction of apoptosis
